Data from US4605744A, “Imidazole derivatives” (Hoffmann-La Roche Inc., priority 1985, dated 1986).
Structures can show the parent of a compound that is named as a salt. Where two headings read alike, the source gives them in different places.

Tests used:
Experiment in all cases: In vitro antibacterial activity (MIC)
Type in all cases: cell-based
P. aeruginosa 503-56 = conditions: Pseudomonas aeruginosa, 50356, P. aeruginosa 503-56; read-out: MIC
Procedure, shortened: (§1)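 Mueller-Hinton broth carries the compound at 128–0.008 μg/ml; diluted drug may be used fresh or stored frozen at -10° to -70° C before use. Wells are seeded with a 10^-2 dilution of overnight culture and incubated overnight at 37° C.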

E. coli 503-455 = conditions: Escherichia coli, 503455, E. coli 503-455; read-out: MIC
Procedure, shortened: as §1

E. aerogenes 503-478 = conditions: Klebsiella aerogenes, 503478, E. aerogenes 503-478; read-out: MIC
Procedure, shortened: as §1

E. coli 5152 = conditions: Escherichia coli, 5152, E. coli 5152; read-out: MIC
Procedure, shortened: as §1

P. vulgaris 101 = conditions: Proteus vulgaris, 101, P. vulgaris 101; read-out: MIC
Procedure, shortened: as §1

C. freundii 8ASM = conditions: Citrobacter freundii, 8ASM, C. freundii 8ASM; read-out: MIC
Procedure, shortened: as §1

S. pneumoniae SC = conditions: Streptococcus pneumoniae, read-out: MIC
Procedure, shortened: as §1

P. aeruginosa 5712 = conditions: Pseudomonas aeruginosa; P. aeruginosa 5712; read-out: MIC
Procedure, shortened: as §1

K. pneumoniae 503-994 = conditions: Klebsiella pneumoniae, 503994, K. pneumoniae 503-994; read-out: MIC
Procedure, shortened: as §1

K. pneumoniae A = conditions: Klebsiella pneumoniae, K. pneumoniae A; read-out: MIC
Procedure, shortened: as §1

S. marcescens S2 = conditions: Serratia marcescens; S. marcescens S2; read-out: MIC
Procedure, shortened: as §1

E. aerogenes 8 = conditions: Klebsiella aerogenes; E. aerogenes 8; read-out: MIC
Procedure, shortened: as §1

E. cloacae 24 = conditions: Enterobacter cloacae, 24, E. cloacae 24; read-out: MIC
Procedure, shortened: as §1

S. marcescens S5 = conditions: Serratia marcescens, S5, S. marcescens S5; read-out: MIC
Procedure, shortened: as §1

P. vulgaris 100 = conditions: Proteus vulgaris; P. vulgaris 100; read-out: MIC
Procedure, shortened: as §1

E. coli 48 = conditions: Escherichia coli, 48, E. coli 48; read-out: MIC
Procedure, shortened: as §1

P. mirabilis 503-1136 = conditions: Proteus mirabilis, 5031136, P. mirabilis 503-1136; read-out: MIC
Procedure, shortened: as §1

S. marcescens S4 = conditions: Serratia marcescens, S4, S. marcescens S4; read-out: MIC
Procedure, shortened: as §1

K. pneumoniae 5096 = conditions: Klebsiella pneumoniae; K. pneumoniae 5096; read-out: MIC
Procedure, shortened: as §1

E. cloacae P99 = conditions: Enterobacter cloacae, P99, E. cloacae P99
Procedure, shortened: as §1

E. cloacae 214 = conditions: Enterobacter cloacae, 214, E. cloacae 214; read-out: MIC
Procedure, shortened: as §1

S. aureus Smith = conditions: Staphylococcus aureus, S. aureus Smith; read-out: MIC
Procedure, shortened: as §1

E. cloacae 5699 = conditions: Enterobacter cloacae, 5699, E. cloacae 5699; read-out: MIC
Procedure, shortened: as §1

P. mirabilis 2 = test system: P. mirabilis 2
Procedure, shortened: as §1

P. aeruginosa 503-820 = conditions: Pseudomonas aeruginosa, 503820; P. aeruginosa 503-820; read-out: MIC
Procedure, shortened: as §1

E. coli R-563 = conditions: Escherichia coli, R563, E. coli R-563; read-out: MIC
Procedure, shortened: as §1

P. aeruginosa POW 151 = conditions: Pseudomonas aeruginosa, POW151
Procedure, shortened: as §1

P. aeruginosa 6148B = conditions: Pseudomonas aeruginosa, read-out: MIC
Procedure, shortened: as §1

P. aeruginosa 8780 = conditions: Pseudomonas aeruginosa; P. aeruginosa 8780; read-out: MIC
Procedure, shortened: as §1

C. freundii CDC6 = conditions: Citrobacter freundii, CDC6, C. freundii CDC6; read-out: MIC
Procedure, shortened: as §1

E. cloacae 6951 = conditions: Enterobacter cloacae, 6951, E. cloacae 6951; read-out: MIC
Procedure, shortened: as §1

C. diversus CDC 1663-72 = conditions: Citrobacter koseri, CDC166372; C. diversus CDC 1663-72; read-out: MIC
Procedure, shortened: as §1

S. pneumoniae 6301 = conditions: Streptococcus pneumoniae, 6301, S. pneumoniae 6301; read-out: MIC
Procedure, shortened: as §1

S. pneumoniae 6302 = conditions: Streptococcus pneumoniae, 6302, S. pneumoniae 6302; read-out: MIC
Procedure, shortened: as §1

K. pneumoniae 4964 = test system: K. pneumoniae 4964
Procedure, shortened: as §1

P. mirabilis 620A = conditions: Proteus mirabilis, 620A, P. mirabilis 620A; read-out: MIC
Procedure, shortened: as §1

S. aureus 1059B = conditions: Staphylococcus aureus, read-out: MIC
Procedure, shortened: as §1

P. mirabilis 90 = conditions: Proteus mirabilis, 90, P. mirabilis 90; read-out: MIC
Procedure, shortened: as §1

E. coli 4 = conditions: Escherichia coli, 4, E. coli 4; read-out: MIC
Procedure, shortened: as §1

S. schottmuelleri = conditions: read-out: MIC
Procedure, shortened: as §1

E. cloacae 9570A = conditions: Enterobacter cloacae
Procedure, shortened: as §1

S. marcescens S1 = conditions: Serratia marcescens, S1, S. marcescens S1; read-out: MIC
Procedure, shortened: as §1

P. vulgaris ATCC 6380 = conditions: Proteus vulgaris, ATCC6380, P. vulgaris ATCC 6380; read-out: MIC
Procedure, shortened: as §1

S. pyogenes 503-782 = conditions: Streptococcus pyogenes, 503782; S. pyogenes 503-782; read-out: MIC
Procedure, shortened: as §1

`CC1(C)S[C@@H]2[C@H](N=CN3CCC(C4=NCCN4)CC3)C(=O)N2[C@H]1C(=O)O` [L, [2S-(2alpha,5alpha,6beta)]-6-[[[4-(4,5-dihydro-1H-imidazol-2-yl)-1-piperidinyl]methylene]amino]-3,3-dimethyl-7-oxo-4-thia-1-azabicyclo[3.2.0]heptane-2-carboxylic acid hydrochloride] gave an MIC (P. aeruginosa 503-56) of 64 µg/mL, an MIC (E. coli 503-455) of 4 µg/mL and an MIC (E. aerogenes 503-478) of 8 µg/mL. The MIC (E. coli 5152) was 32 µg/mL, the MIC (P. vulgaris 101) was 32 µg/mL and the MIC (C. freundii 8ASM) was 0.25 µg/mL. The MIC (S. pneumoniae SC) was 1 µg/mL, the MIC (P. aeruginosa 5712) was over 128 µg/mL and the MIC (K. pneumoniae 503-994) was 1 µg/mL. The MIC (K. pneumoniae A) was 0.25 µg/mL, the MIC (S. marcescens S2) was 0.5 µg/mL and the MIC (E. aerogenes 8) was 32 µg/mL. It also gave an MIC (E. cloacae 24) of 1 µg/mL, an MIC (S. marcescens S5) of 4 µg/mL and an MIC (P. vulgaris 100) of 32 µg/mL. For the same compound, the MIC (E. coli 48) was 0.5 µg/mL, the MIC (P. mirabilis 503-1136) was 8 µg/mL and the MIC (S. marcescens S4) was 2 µg/mL. The MIC (K. pneumoniae 5096) was 64 µg/mL, the MIC (E. cloacae P99) was 0.25 µg/mL and the MIC (E. cloacae 214) was 1 µg/mL. For the same compound, the MIC (S. aureus Smith) was 4 µg/mL, the MIC (E. cloacae 5699) was 1 µg/mL and the MIC (P. mirabilis 2; Proteus mirabilis, 2, P. mirabilis 2, read-out: MIC) was 1 µg/mL. The MIC (P. aeruginosa 503-820) was 128 µg/mL, the MIC (E. coli R-563) was 0.25 µg/mL and the MIC (P. aeruginosa POW 151) was over 128 µg/mL. It also gave an MIC (P. aeruginosa 6148B) of 128 µg/mL, an MIC (P. aeruginosa 8780) of over 128 µg/mL and an MIC (C. freundii CDC6) of 0.5 µg/mL. The MIC (E. cloacae 6951) was 8 µg/mL, the MIC (C. diversus CDC 1663-72) was 0.5 µg/mL and the MIC (S. pneumoniae 6301) was 0.5 µg/mL. The MIC (S. pneumoniae 6302) was 1 µg/mL, the MIC (K. pneumoniae 4964; Klebsiella pneumoniae, 4964, K. pneumoniae 4964, read-out: MIC) was 64 µg/mL and the MIC (P. mirabilis 620A) was over 128 µg/mL. For the same compound, the MIC (S. aureus 1059B) was 64 µg/mL, the MIC (P. mirabilis 90) was 2 µg/mL and the MIC (E. coli 4) was 0.125 µg/mL. The MIC (S. schottmuelleri) was 0.25 µg/mL, the MIC (E. cloacae 9570A; read-out: MIC) was 2 µg/mL and the MIC (S. marcescens S1) was 0.5 µg/mL. The MIC (P. vulgaris ATCC 6380) was 0.25 µg/mL and the MIC (S. pyogenes 503-782) was 32 µg/mL.
In the case of `Cc1nccn1CCCC1CCN(C=N[C@@H]2C(=O)N3[C@@H]2SC(C)(C)[C@@H]3C(=O)O)CC1` [F, [2S-(2alpha,5alpha,6beta)]-3,3-dimethyl-6-[[[4-[3-(2-methyl-1H-imidazol-1-yl)propyl]-1-piperidinyl]methylene]amino]-7-oxo-4-thia-1-azabicyclo[3.2.0]heptane-2-carboxylic acid 1.15 molar hydrochloride 1.75 molar hydrate], the MIC (P. aeruginosa 503-56) is reported as over 128 µg/mL, the MIC (E. coli 503-455) is reported as 2 µg/mL and the MIC (E. aerogenes 503-478) is reported as 4 µg/mL. The MIC (E. coli 5152) was 8 µg/mL, the MIC (P. vulgaris 101) was 16 µg/mL and the MIC (C. freundii 8ASM) was 0.062 µg/mL. For the same compound, the MIC (S. pneumoniae SC) was 1 µg/mL, the MIC (P. aeruginosa 5712) was over 128 µg/mL and the MIC (K. pneumoniae 503-994) was 2 µg/mL. For the same compound, the MIC (K. pneumoniae A) was 0.031 µg/mL, the MIC (S. marcescens S2) was 0.25 µg/mL and the MIC (E. aerogenes 8) was 32 µg/mL. The MIC (E. cloacae 24) was 0.25 µg/mL, the MIC (S. marcescens S5) was 1 µg/mL and the MIC (P. vulgaris 100) was 16 µg/mL. It also gave an MIC (E. coli 48) of 0.062 µg/mL, an MIC (P. mirabilis 503-1136) of 8 µg/mL and an MIC (S. marcescens S4) of 2 µg/mL. It also gave an MIC (K. pneumoniae 5096) of 64 µg/mL, an MIC (E. cloacae P99) of 0.125 µg/mL and an MIC (E. cloacae 214) of 0.125 µg/mL. For the same compound, the MIC (S. aureus Smith) was 8 µg/mL, the MIC (E. cloacae 5699) was 0.25 µg/mL and the MIC (P. mirabilis 2; Proteus mirabilis, 2) was 0.5 µg/mL. The MIC (P. aeruginosa 503-820) was over 128 µg/mL, the MIC (E. coli R-563) was 0.062 µg/mL and the MIC (P. aeruginosa POW 151) was over 128 µg/mL. The MIC (P. aeruginosa 6148B) was over 128 µg/mL, the MIC (P. aeruginosa 8780) was over 12 µg/mL and the MIC (C. freundii CDC6) was 0.062 µg/mL. The MIC (E. cloacae 6951) was 8 µg/mL, the MIC (C. diversus CDC 1663-72) was 0.062 µg/mL and the MIC (S. pneumoniae 6301) was 1 µg/mL. It also gave an MIC (S. pneumoniae 6302) of 2 µg/mL, an MIC (K. pneumoniae 4964; Klebsiella pneumoniae, 4964) of 32 µg/mL and an MIC (P. mirabilis 620A) of 16 µg/mL. For the same compound, the MIC (S. aureus 1059B) was 64 µg/mL, the MIC (P. mirabilis 90) was 0.5 µg/mL and the MIC (E. coli 4) was 0.062 µg/mL. For the same compound, the MIC (S. schottmuelleri) was 0.062 µg/mL, the MIC (E. cloacae 9570A; 9570A) was 0.25 µg/mL and the MIC (S. marcescens S1) was 0.5 µg/mL. The MIC (P. vulgaris ATCC 6380) was 0.25 µg/mL and the MIC (S. pyogenes 503-782) was 128 µg/mL.
